Assay [1] in a line: DPPH radical scavenging activity. To be noted: Trolox equivalent; compounds and Trolox 100 µM. An excerpt: DPPH is a stable chromogen radical, which is widely used to assess the antioxidant activity of biological objects, in particular when searching for potential therapeutic agents used to maintain the redox balance in the body and treat pathologies associated with the action of free radicals. In turn, the oxygen radical absorbance capacity (ORAC) analysis is based on the removal by potential antioxidants of peroxyl radicals generated by AAPH (2,2’-axobis-2-methyl-propanimidamide, dihydrochloride), preventing the degradation of the fluorescein probe.
The measurement of the antiradical activity of synthesized hydroxamic acids was carried out using the method described in [150]. The studied compounds were introduced into the wells of a 96-well black tablet (the final concentration was 100 microns), after which a freshly prepared solution of 2,2-diphenyl-1-picrylhydrazyl (Sigma Aldrich, St. Louis, Missouri, USA) was added. After the incubation time had elapsed, the DPPH radical-scavenging activity was measured using a multifunctional Cytation™3 tablet analyzer (BioTek Instruments, Inc., Winooski, VT, USA) at λ = 517 nm by the difference in the reduction of the DPPH radical peak between control samples containing an equivalent volume of solvent and samples with the substances under study.
In general terms: DPPH is a stable violet radical that fades when it is reduced.

The target in assay [2] is T1, β-amyloid peptide 1-42 (Aβ1-42) (Homo sapiens, UniProt P05067).
T1 construct: the pathological form of β-amyloid peptide 1-42 (Sigma Aldrich); purchased Sigma Aldrich
The assay is described as follows: Thioflavin T fluorescent analysis of Aβ1-42 aggregation. The format is biochemical. To be noted: 48 h, compounds 100 µM, Thioflavin T 10 µM, 48 h registration; read-out: prevention of the aggregation of Aβ1-42. The source says:
The aggregation process of β-amyloid peptide 1-42 (Aβ1-42), caused by hydrophobic interactions of peptide monomers and, as a consequence, the formation of the most toxic polymorphic structure-oligomeric fragments of Aβ, was detected using the fluorescent dye Thioflavin T (Figure 4a). This method is the most widely used for selective staining and the identification of amyloid aggregates, which is confirmed by a large number of works. Fluorescence analysis using Thioflavin T made it possible to monitor the aggregation process of the pathological form of β-amyloid peptide 1-42 (Sigma Aldrich, St. Louis, MI, USA). The experimental protocol was carried out similarly to that described in [58] with some modifications. The registration of changes in the fluorescence of thioflavin T (10 µM, Sigma Aldrich, St. Louis, MI, USA) was performed on a multifunctional tablet analyzer Cytation™3 (BioTek Instruments, Inc., Winooski, VT, USA) at λex = 450 nm, λem = 480 nm. The fluorescence intensity of the solution without Aβ1-42 was subtracted from the fluorescence values of solutions containing protein, due to the need to subtract the background fluorescence.

T1 sequence (P05067 672-713 limits assumed): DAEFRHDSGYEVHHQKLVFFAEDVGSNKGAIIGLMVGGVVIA

Regarding `C=C(C)[C@@H]1CC=C(CNC(=O)/C=C/c2ccc(C(=O)NO)cc2)CC1` [Compound 35a, (S,E)-N-hydroxy-4-(3-oxo-3-(((4-(prop-1-en-2-yl)cyclohex-1-en-1-yl)methyl)amino)prop-1-en-1-yl)benzamide], in assay [1], the “DPPH value (TE)” value was found to be 0.88 TE. For the same molecule, the inhibition at 100 µM in assay [2] came to 73.9%.

These data come from publication PMC10254045, “Elaboration of the Effective Multi-Target Therapeutic Platform for the Treatment of Alzheimer’s Disease Based on Novel Monoterpene-Derived Hydroxamic Acids” (International Journal of Molecular Sciences, 2023).
